Common to all, as to type: cell-based
For assay [1], the system named is neuron cells (iPS Academia Japan) that were differentiation of iPS cells. Put plainly: Motion vibration of neuron cells, FFT power spectra. As to conditions: for spontaneous membrane potential vibration of the neural cells: confirmed by the vibration characteristics of the motion vibration. As to the method:
Effects of GABA and L-Glu administered on the neuron cells were evaluated. The GABA or the L-Glu was administered to incubation liquid of the neuron cells (iPS Academia Japan) that were differentiation of iPS cells. Each neuron cell was image-captured at 2 flame/sec for 1 minute to provide each cell image.
In each cell image, the motion vibration was extracted using the image range including one neuron cell as the extraction range. FIG. 23(a) is a graph of the motion vibration extracted from the cell image of the neural cells to which the GABA is administrated. FIG. 23(b) is a graph of the motion vibration extracted from the cell image of the neural cells to which the L-Glu is administrated.
Then, the FFT analysis was applied to the motion vibration to calculate power spectra. FIG. 24(a) is a graph of power spectrum calculated from the motion vibration (FIG. 23(a)) of the neuron cells to which the GABA is administered. FIG. 24(b) is a graph of power spectrum calculated from the motion vibration (FIG. 23(b)) of the neuron cells to which the L-Glu is administered.

For assay [2] the test system is unchanged. Put plainly: Fluorescence intensity vibration (Ca2+ imaging with Fluo8) of neuron cells, FFT power spectra. As to conditions: for spontaneous membrane potential vibration of the neural cells: confirmed by the vibration characteristics of the fluorescence intensity vibration. Here is the method: Effects of GABA and L-Glu on the neuron cells and the neuron cell network were evaluated using the fluorescence intensity vibration. The GABA is a physiological active substance that gives inhibitory stimulation to the neuron cells. The L-Glu gives exciting stimulation.
Fluo8 (fluorescent labeling) used in Ca^2+ imaging was entrained in the neuron cells (iPS Academia Japan) that were differentiation of iPS cells. The GABA or the L-Glu was administered to incubation liquid. Fluorescence of the Fluo8 generated from each neuron cell was image-captured at 2 flame/sec for 1 minute to provide each cell image.
The fluorescence intensity vibration (vibration information) was extracted from each cell image, taking the image range including one neuron cell as the extraction range. FIG. 9(a) is a graph of fluorescence intensity vibration extracted from the cell image of the neuron cells to which the GABA is administered. FIG. 9(b) is a graph of fluorescence intensity vibration extracted from the cell image of the neuron cells to which the L-Glu is administered.
Then, the FFT analysis was applied to fluorescence intensity vibration to calculate power spectra (vibration characteristics). FIG. 10(a) is a graph of power spectrum calculated from the fluorescence intensity vibration ([…]) of the neuron cells to which the GABA is administered. FIG. 10(b) is a graph of power spectrum calculated from the fluorescence intensity vibration ([…]) of the neuron cells to which the L-Glu is administered.

Assay [3] concerns neural cells derived from iPS cells where a sufficient neural cell network was formed. As to the kind of experiment: Evaluation of cytotoxicity by motion vibration. As to conditions: whole image as extraction range; 5 μm of memantine with 500 nM or 5000 nM of Aβ peptide; incubated for five days; FIG. 28. Here is the method:
Effects of a cytotoxic substance administered on the neuron cells were evaluated using the motion vibration of the cells. As a cytotoxic model, the cytotoxicity of Aβ peptide considered as a cause of the Alzheimer disease and a neuroprotective action of an anti-alzheimer's disease drug, i.e., memantine were evaluated. As the cytotoxicity of Aβ peptide, there are a synapse failure by acting on synapses and a cell failure entrained in the cells. The cell group of the neural cells derived from iPS cells where a sufficient neural cell network was formed was prepared. A predetermined amount of Aβ peptide or Aβ peptide and memantine was administered to each cell group to incubate for five days. After five days, the cell image of each cell group was captured to extract the motion vibration from the whole image and each cell as the extraction range and the vibration characteristics were calculated. FIGS. 27(a) to (f) are graphs of the vibration characteristics of the motion vibration extracted from the extraction range including the whole image. […] FIG. 28 is a graph of average values of the vibration power extracted from the motion vibration in each cell group shown in FIGS. 27(a) to (e) in each pixel included in the extraction range. […] On the other hand, when memantine was administered, the vibration power is not decreased. […]

[4] abbreviates: extraction range including one neuron cell, compared with neuron cells to which the L-Glu is administered, FIGS. 24(a) and 24(b).
Setting [5] is: extraction range including one neuron cell, compared with neuron cells to which the L-Glu is administered, FIGS. 10(a) and 10(b).

Each structure is given as a SMILES string.

In the case of `N[C@@H](CCC(=O)O)C(=O)O` [L-Glu], the “spontaneous membrane potential vibration of the neural cells” value (“spontaneous membrane potential vibration” for short) in assay [1] and in assay [2] was “changed” each time.
In the case of `NCCCC(=O)O` [GABA], the “spontaneous membrane potential vibration” value in assay [1] is listed as “changed”. In addition, in assay [1] (setting [4]), the “amplitude of the motion vibration” value was “greater” and the “frequency of the motion vibration” value was “lower”. The “spontaneous membrane potential vibration” value in assay [2] was “changed”. Moreover, in assay [2] (setting [5]), the “amplitude of the fluorescence intensity vibration” value is given as “greater” and the “frequency of the fluorescence intensity vibration” value is reported as “lower”.
Consider `CC12CC3CC(C)(C1)CC(N)(C3)C2` [memantine], for which the “vibration power of the cell group (motion vibration, average values in each pixel)” value in assay [3] was “not decreased”.

For the origin of these results see patent publication US10209236B2, “Cell analyzer system, cell analyzer program, and cell analyzing method” (Sony Corporation, priority 2012, dated 2019).
